This test concerns HT-29 spheroids encapsulated BECM. Nature of the test: Drug response of HT-29 spheroid BECMs by CELLTITER GLO 3D cell viability assay. Type of test: cell-based. Conditions: biomaterial-encapsulated HT-29 cancer cell spheroids; Osimertinib 0, 2, 4 and 8 μM; 72 hrs at 37° C.; n=10; FIG. 7. The source says:
Commercially available 3D cell viability assay, CELLTITER GLO (Promega Corp.), was used to determine the cell viability of the BECMs.

The source of these data is patent publication US20240392250A1, “HIGH-THROUGHPUT SELECTION AND FABRICATION OF BIOMATERIAL-ENCAPSULATED CELL MASS AND USES THEREOF” (BioArchitec Group Limited, priority 2022, published 2024).

As to `C=CC(=O)Nc1cc(Nc2nccc(-c3cn(C)c4ccccc34)n2)c(OC)cc1N(C)CCN(C)C` [Osimertinib], the “cell viability of the BECMs (dose-response)” value is on record as “a typical 3D cell culture viability dose-response was obtained”.
